# Experimental data: patent publication US8173668B1 (Alcon Research, Ltd., priority 2007, dated 2012)
# Experiments:
# [1] = molecular target: human cloned B2-receptors (Homo sapiens, UniProt P30411); assay: HTRF-based assay of endogenous IP1 production in CHO cells; assay type: cell-based; conditions: CHO cells expressing human cloned B2-receptors, read-out: EC50, production of endogenous IP1 from PI turnover
# Experimental: The cells are suspended in IP1 stimulation buffer containing Hepes 10 mM, CaCl2 1 mM, MgCl2 0.5 mM, KCl 4.2 mM, NaCl 146 mM, Glucose 5.5 mM, LiCl 50 mM pH 7.4, then distributed in microplates at a density of 40,000 cells/well (B2 receptor assays) or 30,000 cells/well (B1 receptor assays). Test compounds are added to the cells at various concentrations and incubated for 20 min at 37° C. […] Following the 20 min incubation at 37° C., the cells are lysed and the fluorescence acceptor (D2-labeled IP1) and fluorescence donor (anti-IP1 antibody labeled with europium cryptate) are added. After 60 min at room temperature, the fluorescence transfer is measured at λex=337 nm and λem=620 and 665 nm using a microplate reader.
# [2] = tested on: conscious ocular hypertensive cynomolgus monkey eyes; assay: IOP response in lasered (hypertensive) eyes of conscious cynomolgus monkeys, topical ocular; assay type: in vivo
# Experimental: Intraocular pressure (IOP) is determined with an Alcon Pneumatonometer (Alcon Laboratories, Inc., Fort Worth, Tex.) after light corneal anesthesia with 0.1% proparacaine. Right eyes are hypertensive as a result of laser trabeculoplasty. After a baseline IOP measurement, test compound is instilled in the right eyes only of 8-10 cynomolgus monkeys. Vehicle is instilled in the right eyes of 5-6 additional animals. Subsequent IOP measurements are taken at 1, 3, and 6 hours. IOP measurements are also taken on left eyes (normotensive and untreated) at each of these time points. The percent change in IOP from baseline is determined for each animal for every IOP measurement (Sharif et al. J. Ocular Pharmacol. Ther. 17: 305-317, 2001; May et al., J Pharmacol Exp Ther. 306: 301-309, 2003; Sharif et al. Invest. Ophthalmol. Vis. Res. 47: 4001-4010, 2006). Group mean and standard error of the mean (SEM) are calculated for each time point. […] In cases where the compound of invention has poor ocular bioavailability, the compound may need to be administered intracamerally or intravitreally in order to observe the IOP-lowering efficacy.
# The IOP-lowering effect was slow to develop but significant IOP reduction was observed even 3 hours post-dosing with maximum ocular hypotension observed 16-48 hours post-dosing (Tables 6-8; FIGS. 3b-5).
# [3] = molecular target: T1, B2-receptors in h-TM cells (Homo sapiens, UniProt P30411); assay: [Ca2+]i mobilization (FLIPR) in h-TM cells, agonist mode; assay type: cell-based; conditions: h-TM cells, mean ± SEM
# T1 construct: B2-receptor proteins in h-TM, h-CM and h-NPE cells; endogenous in cells; host or cells: human trabecular meshwork (h-TM), human ciliary muscle (h-CM) and human non-pigmented ciliary epithelial (h-NPE) cells
# T1 sequence (P30411 1-391): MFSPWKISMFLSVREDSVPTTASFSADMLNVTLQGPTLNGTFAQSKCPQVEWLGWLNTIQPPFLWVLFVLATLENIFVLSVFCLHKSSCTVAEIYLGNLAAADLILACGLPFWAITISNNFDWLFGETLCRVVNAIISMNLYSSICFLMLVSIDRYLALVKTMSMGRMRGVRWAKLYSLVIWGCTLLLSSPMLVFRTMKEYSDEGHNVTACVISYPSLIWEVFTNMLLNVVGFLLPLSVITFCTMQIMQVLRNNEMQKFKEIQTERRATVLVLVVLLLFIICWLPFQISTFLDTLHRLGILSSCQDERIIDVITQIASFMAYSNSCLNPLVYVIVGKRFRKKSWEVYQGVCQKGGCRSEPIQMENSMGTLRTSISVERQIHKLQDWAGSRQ
# Experimental: On the day of the experiment, one vial of FLIPR Calcium Assay Kit dye is re-suspended in 50 mL of a FLIPR buffer consisting of Hank's Balanced Salt Solution (HBSS), 20 mM HEPES, and 2.5 mM probenecid, pH 7.4. Cells are loaded with the calcium-sensitive dye by addition of an equal volume (50 μL) to each well of the 96-well plate and incubated with dye for 1 h at 23° C. After this time, the test compound plate and cell plate are placed in the FLIPR instrument. At the beginning of an experimental run, a signal test is performed to check the basal fluorescence signal from the dye-loaded cells and the uniformity of the signal across the plate. The basal fluorescence is adjusted between 8000-12000 counts by modifying the exposure time, the camera F-stop, or the laser power. Instrument settings for a typical assay are the following: laser power 0.3-0.6 W, camera F-stop F/2, and exposure time 0.4 sec.
# Fluorescence data are collected in real-time at 1.0 sec intervals for the first 60 secs and at 6.0 sec intervals for an additional 120 secs. […] The data are then analyzed using an automated, iterative, sigmoidal curve-fitting computer program to obtain the potency and intrinsic activities of the test agents as previously described (Sharif et al. J. Pharmacol. Exp. Ther. 286: 1094-1102, 1998; Sharif et al. Invest. Ophthalmol. Vis. Sci. 39:2562-2571, 1998; Kelly et al. J. Pharmacol. Exp. Ther. 304: 238-245, 2003). The sources of materials and reagents for such assays can be found in the references cited above.
compound,measurement,setting,value
CNC(=O)c1ccc(/C=C/C(=O)NCC(=O)N(C)c2ccc(Cl)c(COc3cccc4c(OCc5ccccn5)cc(C)nc34)c2Cl)cc1 [FR-190997],EC50,[1],21 nM
same,% Change in IOP,"[2]; Study 1, 30 μg topical ocular, Dose 1/1 hr",−4.6 ± 4.4%
same,% Change in IOP,"[2]; Study 1, 30 μg topical ocular, Dose 1/3 hr",−16.4 ± 5.3%
same,% Change in IOP,"[2]; Study 1, 30 μg topical ocular, Dose 1/6 hr",−34.5 ± 7.5%
same,% Change in IOP,"[2]; Study 1, 30 μg topical ocular, Dose 2/16 hr",−51.6 ± 5.4%
same,% Change in IOP,"[2]; Study 1, 30 μg topical ocular, Dose 2/40 hr",−35.5 ± 6.3%
same,% Change in IOP,"[2]; Study 1, 30 μg topical ocular, Dose 2/132 hr",−3.5 ± 3.7%
same,% Change in IOP,"[2]; Study 2, 3 μg topical ocular, Dose 1/24 hr",−25.9 ± 0.6%
same,% Change in IOP,"[2]; Study 2, 3 μg topical ocular, Dose 1/48 hr",−19.7 ± 1.9%
same,% Change in IOP,"[2]; Study 2, 3 μg topical ocular, Dose 1/120 hr",−7.7 ± 0.8%
same,% Change in IOP,"[2]; Study 3, 10 μg topical ocular, Dose 1/24 hr",−27.2 ± 0.1%
same,% Change in IOP,"[2]; Study 3, 10 μg topical ocular, Dose 1/48 hr",−32.5 ± 2.4%
same,% Change in IOP,"[2]; Study 3, 10 μg topical ocular, Dose 1/120 hr",−9.7 ± 0.6%
same,% Change in IOP,"[2]; Table 8 Study 1, 300 μg topical ocular, Dose 1/1 hr",2.0 ± 0.6%
same,% Change in IOP,"[2]; Table 8 Study 1, 300 μg topical ocular, Dose 1/3 hr",−6.9 ± 2.9%
same,% Change in IOP,"[2]; Table 8 Study 1, 300 μg topical ocular, Dose 1/6 hr",−24.8 ± 10.3%
same,% Change in IOP,"[2]; Table 8 Study 2, 300 μg topical ocular, Dose 1/1 hr",6.7 ± 2.1%
same,% Change in IOP,"[2]; Table 8 Study 2, 300 μg topical ocular, Dose 1/3 hr",−7.5 ± 3.1%
same,% Change in IOP,"[2]; Table 8 Study 2, 300 μg topical ocular, Dose 1/6 hr",−15.4 ± 5.7%
same,% Change in IOP,"[2]; Table 8 Study 3, 600 μg topical ocular, Dose 1/1 hr",−0.4 ± 0.2%
same,% Change in IOP,"[2]; Table 8 Study 3, 600 μg topical ocular, Dose 1/3 hr",−10.6 ± 4.4%
same,% Change in IOP,"[2]; Table 8 Study 3, 600 μg topical ocular, Dose 1/6 hr",−27.7 ± 11.3%
same,% Change in IOP,"[2]; Table 8 Study 4, 600 μg topical ocular, Dose 1/1 hr",4.9 ± 1.6%
same,% Change in IOP,"[2]; Table 8 Study 4, 600 μg topical ocular, Dose 1/3 hr",−4.6 ± 2.0%
same,% Change in IOP,"[2]; Table 8 Study 4, 600 μg topical ocular, Dose 1/6 hr",−18.4 ± 6.9%
same,% Change in IOP,"[2]; Table 8 Study 4, 600 μg topical ocular, Dose 2/16 hr",−37.9 ± 14.1%
same,% Change in IOP,"[2]; Table 8 Study 4, 600 μg topical ocular, Dose 2/40 hr",−31.2 ± 11.7%
same,% Change in IOP,"[2]; Table 8 Study 4, 600 μg topical ocular, Dose 2/64 hr",−16.1 ± 6.1%
same,lowering of IOP,"[2]; topical ocular, 0.03-600 μg/eye",significant dose-dependent lowering of IOP
same,Emax,"[3]; HTM, read-out: Intrinsic Activity (Emax, % max relative to BK)",86%
same,EC50,"[3]; read-out: Potency (EC50), [Ca2+]i mobilization",167 ± 29 nM
